The values that follow come from US20200138890A1, “PHARMACEUTICAL COMPOSITION FOR PREVENTION AND TREATMENT OF PROSTATIC HYPERPLASIA AND ERECTILE DYSFUNCTION CAUSED BY ANDROPAUSE COMPRISING EXTRACT OF LESPEDEZA CUNEATA AND TRIGONELLAE SEMEN” (DUHANBIO CO., LTD., priority 2017, published 2020).

Assay [1] concerns male SD rats with prostate gland hypertrophy induced by testosterone. Briefly: Inhibition of prostatic hyperplasia in vivo (testosterone-induced prostate gland hypertrophy, prostate weight). The conditions noted are these: testosterone 3 mg/kg/day s.c.; Examples 50 mg/kg oral, finasteride 2 mg/kg oral, 3 weeks.
Excerpt: At this time, finasteride was used as the positive control group.
On the day of the last administration, the animals were weighed and then sacrificed, and blood was collected and the prostate glands were excised.
Assay [2] concerns male SPF New Zealand albino rabbits. Briefly: Erectile promoting effect in vivo (erection start time and duration). The arrangement: species or system rabbit. The conditions noted are these: oral, Examples 50 mg/kg, sildenafil citrate 20 mg/kg. On the procedure:
Based on the above results, the effects on erectile promotion of the compositions of Examples 6 to 9 of the present invention in vivo were measured. At this time, sildenafil citrate was used as a positive control group. Specifically, as experimental animals, six male SPF New Zealand albino rabbits (about 3.5 to 4.0 kg body weight, Samtako, Korea) per test group were used, and these rabbits were placed in cages and fed a constant amount of conventional solid feed for rabbits and water under the same condition for 4 days or more. The rabbit was fasted for 48 hours or more and then used for the test. When fasting, the rabbits were allowed to drink water freely. To the rabbit prepared as described above, the compositions of Examples 6 to 9 of the present invention were orally administered at a dose of 50 mg/kg per animal. Meanwhile, sildenafil citrate, a positive control group, was orally administered at a dose of 20 mg/kg. After administration as described above, the erection start time and duration were measured.

Where [3] appears, read: listed as positive control group.

Counter-ions that a name gives are not always drawn.

`CC(C)(C)NC(=O)[C@H]1CC[C@H]2[C@@H]3CC[C@H]4NC(=O)C=C[C@]4(C)[C@H]3CC[C@]12C` [Finasteride, finasteride]: in assay [1], the Prostate gland weight is reported as 0.92 ± 0.11 g and the “Prostate gland/body weight (%)” value was found to be 0.24 ± 0.02%.

For `CCCc1nn(C)c2c(=O)[nH]c(-c3cc(S(=O)(=O)N4CCN(C)CC4)ccc3OCC)nc12` [sildenafil citrate], in assay [2] (listed as Control group), the Erection maintenance time was determined as 120 ± 5 min, the Erection start time came to 6.2 ± 1.1 min and the “Maximum Erection time” value was found to be 19 ± 1 min. Further, in assay [2] (setting [3]), the Erection maintenance time came to 120 min, the Erection start time result is recorded as “about 6 Min” and the “Maximum Erection time” value is on record as “about 19 Min”.
